# Laboratory results taken from US12446577B2 (priority 2018, dated 2025).
# Legend:
# [1] = tested on: Phytophthora infestans strain 1813E11; assay type: in vivo; conditions: 100 ppm
# lettuce plants = experiment: Phytotoxicity on lettuce plants after spraying; assay type: in vivo; conditions: 2.5% pelargonic acid, sprayed until run-off, n = 6, scale 0 to 100%
# Description: A neutralization reaction was made with pelargonic acid (>97%) and choline hydroxide (45%) based on the titration curve (FIG. 1). Based on the titration curve, a stock solution of choline pelargonate (29.1% PLA (>97%) and 40.4% Choline hydroxide (45%)) was made by mixing 14.55 mL pelargonic acid with 15.25 mL distilled water and afterwards the addition of 20.2 mL choline hydroxide. The choline pelargonate stock solution was diluted in distilled water to obtain a diluted choline pelargonate composition comprising about 2.5% pelargonic acid. The total concentration of choline pelargonate in the water spray solution was 37.08 g a.i./L (a.i.=active ingredient).
# The next step was to assess the phytotoxicity of a composition comprising choline pelargonate on lettuce plants. As a control, plants were treated with water. The plants were also treated with a diluted pelargonic acid composition, including a diluted pelargonic acid solution based on the commercial product Beloukha (Belchim Crop Protection).
# Lettuce plants were sprayed with a small hand sprayer until run-off with the respective compositions and incubated at 20° C. Each composition was tested with a setup consisting out of six plants. A visual assessment was made on lettuce plants after spraying. The effect of phytotoxicity (necrosis or discolouration) was scored by a scale from 0 to 100%, with 0% no phytotoxicity and 100% fully phytotoxicity on plants.
# Sclerotinia sclerotiorum = experiment: Mycelium growth inhibition on PDA (Example 7); assay type: cell-based; conditions: 3 days at 25° C; for Average mycelium diameter: n = 4
# Description: (§1) Strains used for this trial were kept and refreshed on Potato Dextrose Agar (PDA) at 25° C.
# (§2) To begin, a quantity of test product was directly added in a certain volume of PDA (about 20 mL/petri dish) (Table 11). Plugs of agar (diameter 10 mm) from one week-old cultures were placed at the centre of the PDA plates. Each object was performed in 4 repetitions. The petri dishes were then incubated at 25° C. in the dark. After 3 and 6 days of incubation, the diameter of the colonies was measured in 2 perpendicular directions. The percentage of inhibition was calculated for each product/concentration compare to the untreated.
# Botrytis cinerea = experiment: Mycelium growth inhibition on PDA (Example 7); assay type: cell-based; conditions: 3 days at 25° C; for Average mycelium diameter: n = 4
# Description: as §1, §2
# Rhizoctonia solani = experiment: Mycelium growth inhibition on PDA (Example 7); assay type: cell-based; conditions: 3 days at 25° C; for Average mycelium diameter: n = 4
# Description: as §1, §2
# Pythium ultimum = experiment: Mycelium growth inhibition on PDA (Example 7); assay type: cell-based; conditions: 3 days at 25° C; for Average mycelium diameter: n = 4
# Description: as §1, §2
# Sclerotinia minor = experiment: Mycelium growth inhibition on PDA (Example 7); assay type: cell-based; conditions: 3 days at 25° C; for Average mycelium diameter: n = 4
# Description: as §1, §2
# Plasmopara viticola = Plasmopara viticola grapevine leaf disc test; assay type: in vivo; conditions: copper hydroxide 2 g/L, preventive spray; 7 days after the artificial inoculation
# Description: A stock solution of choline pelargonate (29.1% PLA and 40.4% Choline hydroxide, pH 8.82) was made by mixing 14.55 mL PLA with 15.25 mL distilled water and afterwards the addition of 20.2 mL of Choline hydroxide. The choline pelargonate stock solution (42.04%) was diluted in order to create a solution with a final concentration of choline pelargonate equal to 1 mL/L and 10 mL/L. The two choline pelargonate solutions, water as negative control and copper hydroxide (2 g/L) as positive control were used for this test. For each object 4 Petri plates were prepared and each plate contains 5 grapevine leaf discs (see Table 8 below).
# Leaf discs preparation: leaf discs (diameter 19 mm) were prepared from grapevine cuttings (variety Pinot Nero Entav 115) using the young leaves. 5 leaf discs were placed in each Petri Plate on autoclaved paper (4 layers), the paper was previously wetted by adding 8.5 mL of sterile water in each plate. The leaf discs were placed on the paper with the abaxial side upward.
# Test products application and pathogen inoculation: leaf discs were treated with the test products at 11.30 A.M (i.e. a preventive application) and the leaves were allowed to dry. The products were sprayed with a small hand sprayer; 5 sprays were applied on each plate. The same day at 16.30 a suspension of P. viticola spores at final concentration of 2*10^5 spore/mL was applied (5 hours after test product application) on the leaf discs. The inoculated plates were incubated overnight in the dark at 25° C. The following day, the leaf discs were dried under the laminar flow and then placed back at 25° C. The disease assessment was done 7 days after the artificial inoculation.
SMILES,% efficacy compared to control (Abbott) (Sclerotinia sclerotiorum; 0.042% a.i. in PDA),Average mycelium diameter (Sclerotinia sclerotiorum; 0.042% a.i. in PDA),% efficacy compared to control (Abbott) (Sclerotinia sclerotiorum; 0.42% a.i. in PDA),Average mycelium diameter (Sclerotinia sclerotiorum; 0.42% a.i. in PDA),% efficacy compared to control (Abbott) (Botrytis cinerea; 0.042% a.i. in PDA),Average mycelium diameter (Botrytis cinerea; 0.042% a.i. in PDA),% efficacy compared to control (Abbott) (Botrytis cinerea; 0.42% a.i. in PDA),Average mycelium diameter (Botrytis cinerea; 0.42% a.i. in PDA),% efficacy compared to control (Abbott) (Rhizoctonia solani; 0.042% a.i. in PDA),Average mycelium diameter (Rhizoctonia solani; 0.042% a.i. in PDA),% efficacy compared to control (Abbott) (Rhizoctonia solani; 0.42% a.i. in PDA),Average mycelium diameter (Rhizoctonia solani; 0.42% a.i. in PDA),% efficacy compared to control (Abbott) (Pythium ultimum; 0.042% a.i. in PDA),Average mycelium diameter (Pythium ultimum; 0.042% a.i. in PDA),% efficacy compared to control (Abbott) (Pythium ultimum; 0.42% a.i. in PDA),Average mycelium diameter (Pythium ultimum; 0.42% a.i. in PDA),% efficacy compared to control (Abbott) (Sclerotinia minor; 0.042% a.i. in PDA),Average mycelium diameter (Sclerotinia minor; 0.042% a.i. in PDA),% efficacy compared to control (Abbott) (Sclerotinia minor; 0.42% a.i. in PDA),Average mycelium diameter (Sclerotinia minor; 0.42% a.i. in PDA),further results
O=[N+]([O-])c1cc(C(F)(F)F)c(Cl)c([N+](=O)[O-])c1Nc1ncc(C(F)(F)F)cc1Cl [Fluazinam],–,–,–,–,–,–,–,–,–,–,–,–,–,–,–,–,–,–,–,–,"Disease severity (%) on potato leaf discs, Mean ([1]; mean of 5 leaf discs, six days after inoculation): 0%; efficacy ([1]; potato leaf discs): 100%; Disease severity (%) on potato leaf discs ([1]; single leaf discs a-e, six days after inoculation): 0%"
"CCCCCCCCC(=O)O [Pelargonic acid, pelargonic acid, reference compound]",–,–,–,–,–,–,–,–,–,–,–,–,–,–,–,–,–,–,–,–,Phytotoxicity (%) evaluation on lettuce plants (lettuce plants; 0 DAA): 0.00%; Phytotoxicity (%) evaluation on lettuce plants (lettuce plants; 1 DAA): 60.00%; Phytotoxicity (%) evaluation on lettuce plants (lettuce plants; 2 DAA): 60.83%; Phytotoxicity (%) evaluation on lettuce plants (lettuce plants; 7 DAA): 70.00%
"CCCCCCCCCC(=O)[O-].C[N+](C)(C)CCO [TMAD, choline decanoate]",97%,2.1 ± 1.7 mm,100%,0.0 ± 0.0 mm,84%,7.0 ± 10.7 mm,95%,2.0 ± 4.0 mm,48%,27.3 ± 6.9 mm,99%,0.4 ± 0.8 mm,100%,0.0 ± 0.0 mm,100%,0.0 ± 0.0 mm,98%,1.5 ± 1.8 mm,99%,0.5 ± 0.6 mm,–
"CCCCCCCC(=O)[O-].C[N+](C)(C)CCO [TMAO, choline octanoate]",98%,1.3 ± 0.3 mm,100%,0.0 ± 0.0 mm,72%,12.1 ± 11.0 mm,100%,0.0 ± 0.0 mm,64%,18.9 ± 3.8 mm,100%,0.0 ± 0.0 mm,100%,0.0 ± 0.0 mm,100%,0.0 ± 0.0 mm,96%,2.5 ± 2.9 mm,100%,0.0 ± 0.0 mm,–
"[Cu+2].[OH-].[OH-] [copper, copper hydroxide, reference compound]",–,–,–,–,–,–,–,–,–,–,–,–,–,–,–,–,–,–,–,–,disease symptoms on the leaf discs (Plasmopara viticola): did not show any disease symptoms
